In general, Ki refers to the equilibrium dissociation constant of an inhibitor or competing ligand from its target.

The values below come from ChEMBL document CHEMBL1150437, “Synthesis and neuraminidase inhibition studies of 4-azido, amino, and acetamido substituted sialosides” (Bioorg Med Chem Lett, 1994).

The assay concerns unidentified influenza virus. Description: Compound was tested for inhibition of Influenza neuraminidase. In kind it is functional, organism-based.

Compound `CC(=O)NC1C(N)CC(SC(C)C2OC(O)C(O)C(O)C2O)(C(=O)O)OC1[C@H](O)[C@H](O)CO` (some centres not stated) showed an inhibitory constant (Ki) of 50 µM.
Under `CC(=O)N[C@H]1[C@H]([C@H](O)[C@H](O)CO)O[C@@](OC[C@@H]2O[C@H](O)[C@@H](O)[C@@H](O)[C@H]2O)(C(=O)O)C[C@H]1N` stands 150 µM.
